Each structure is given as a SMILES string. Some results are limits rather than exact numbers.

The target in experiment [1] is T1, human PPARgamma (Homo sapiens, UniProt P37231).
T1 construct: human PPARgamma receptor (amino acids 1152-Y475); expressed in transfected cells; host or cells: HEK cells, transiently transfected with pcDNA3-GAL4-humanPPARgammaLBD
T1 sequence (P37231 182-477 isoform P37231-2 limits assumed): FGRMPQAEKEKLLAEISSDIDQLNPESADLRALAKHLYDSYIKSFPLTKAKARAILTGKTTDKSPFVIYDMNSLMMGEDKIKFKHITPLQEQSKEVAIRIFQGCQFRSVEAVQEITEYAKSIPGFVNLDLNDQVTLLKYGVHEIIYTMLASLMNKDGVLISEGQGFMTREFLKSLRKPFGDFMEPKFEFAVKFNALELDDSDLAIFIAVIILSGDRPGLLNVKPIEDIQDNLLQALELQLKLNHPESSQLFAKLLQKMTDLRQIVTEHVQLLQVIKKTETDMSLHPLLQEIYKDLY
The experiment in a line: Cellular PPARgamma assay (transiently transfected HEK cells, luciferase reporter). In kind it is cell-based. Conditions: HEK cells transiently transfected with GAL4-humanPPARgammaLBD, 48 h incubation. An excerpt: Determination of EC50 Values of PPAR Agonists in the Cellular PPARgamma Assay
A transient transfection system is employed to determine the cellular PPARgamma activity of PPAR agonists. It is based on the use of a luciferase reporter plasmid (pGL3basic-5×GAL4-TK) and of a PPARgamma expression plasmid (pcDNA3-GAL4-humanPPARgammaLBD). Both plasmids are transiently transfected into human mbryonic kidney cells (HEK cells). There is then expression in these cells of the usion protein GAL4-humanPPARgammaLBD which binds to the GAL4 binding sites of he reporter plasmid. In the presence of a PPARgamma-active ligand, the activated usion protein GAL4-humanPPARgammaLBD induces expression of the luciferase reporter gene, which can be detected in the form of a chemiluminescence signal after addition of a luciferase substrate. As a difference from the stably transfected PPARalpha reporter cell line, in the cellular PPARgamma assay the two components (luciferase reporter plasmid and PPARgamma expression plasmid) are transiently transfected into HEK cells because stable and permanent expression of the PPARgamma fusion protein is cytotoxic.
Construction of the Plasmids
The luciferase reporter plasmid pGL3basic-5×GAL4-TK is based on the vector pGL3basic from Promega. The reporter plasmid is prepared by cloning five binding sites of the yeast transcription factor GAL4 (each binding site with the sequence 5′-CTCGGAGGACAGTACTCCG-3′), together with a 160 bp-long thymidine kinase promoter section (Genbank Accession # AF027128) 5′-upstream into pGL3basic. 3′-downstream of the thymidine kinase promoter is the complete luciferase gene from Photinus pyralis (Genbank Accession # M15077), which is already a constituent of the plasmid pGL3basic used. The cloning and sequencing of the reporter plasmid pGL3basic-5×GAL4-TK took place in analogy to the description in Sambrook J. et. al. (Molecular cloning, Cold Spring Harbor Laboratory Press, 1989).
The PPARgamma expression plasmid pcDNA3-GAL4-humanPPARgammaLBD was prepared by first cloning the cDNA coding for amino acids 1-147 of the yeast transcription factor GAL4 (Genbank Accession # P04386) into the plasmid pcDNA3 (from Invitrogen) 3′-downstream of the cytomegalovirus promoter. Subsequently, the cDNA of the ligand-binding domain (LBD) of the human PPARgamma receptor (amino acids 1152-Y475; Accession # g1480099) 3′-downstream of the GAL4 DNA binding domain was cloned. Cloning and sequencing of the PPARgamma expression plasmid pcDNA3-GAL4-humanPPARgammaLBD again took place in analogy to the description in Sambrook J. et. al. (Molecular cloning, Cold Spring Harbor Laboratory Press, 1989). Besides the luciferase reporter plasmid pGL3basic-5×GAL4-TK and the PPARgamma expression plasmid pcDNA3-GAL4-humanPPARgammaLBD, also used for the cellular PPARgamma assay are the reference plasmid pRL-CMV (from Promega) and the plasmid pBluescript SK(+) from Stratagene. All four plasmids were prepared using a plasmid preparation kit from Qiagen, which ensured a plasmid quality with a minimal endotoxin content, before transfection into HEK cells.
The activity of PPARgamma agonists is determined in a 4-day assay which is described below. Before the transfection, HEK cells are cultivated in DMEM medium (#41965-039, Invitrogen) which is mixed with the following additions: 10% FCS (#16000-044, Invitrogen), 1% penicillin-streptomycin solution (#15140-122, Invitrogen) and 2 mM L-glutamine (#25030-024, Invitrogen).
Firstly, solution A, a transfection mixture which contains all four plasmids previously described in addition to DMEM medium, is prepared. […]

Experiment [2] deals with T2, human PPARalpha (Homo sapiens, UniProt Q07869).
T2 construct: human PPARalpha receptor (amino acids S167-Y468); expressed in transfected cells; host or cells: HEK cells, stably transfected (pcDNA3 construct)
T2 sequence (Q07869 167-468): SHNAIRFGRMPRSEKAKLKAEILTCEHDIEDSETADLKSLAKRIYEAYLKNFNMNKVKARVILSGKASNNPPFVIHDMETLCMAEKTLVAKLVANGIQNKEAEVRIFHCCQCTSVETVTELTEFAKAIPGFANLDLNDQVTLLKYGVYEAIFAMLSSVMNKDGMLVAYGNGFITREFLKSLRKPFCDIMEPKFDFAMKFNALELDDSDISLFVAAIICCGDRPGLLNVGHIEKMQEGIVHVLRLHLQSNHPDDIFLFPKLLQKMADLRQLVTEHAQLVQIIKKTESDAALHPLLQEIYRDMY
Kind of experiment: Cellular PPARalpha assay (stably transfected HEK luciferase reporter cell line). To be noted: PPARalpha reporter cell line (HEK, GR-GAL4-humanPPARalpha-LBD), 24 h incubation. The format is cell-based. How it is done: Determination of EC50 Values of PPAR Agonists in the Cellular PPARalpha Assay
The potency of substances which bind to human PPARalpha and activate it in an agonistic manner is analyzed using a stably transfected HEK cell line (HEK=human embryo kidney) which is referred to here as PPARalpha reporter cell line. It contains two genetic elements, a luciferase reporter element (pdeltaM-GAL4-Luc-Zeo) and a PPARalpha fusion protein (GR-GAL4-humanPPARalpha-LBD) which mediates expression of the luciferase reporter element depending on a PPARalpha ligand. The stably and constitutively expressed fusion protein GR-GAL4-humanPPARalpha-LBD binds in the cell nucleus of the PPARalpha reporter cell line via the GAL4 protein portion to the GAL4 DNA binding motifs 5′-upstream of the luciferase reporter element which is stably integrated in the genome of the cell line. There is only little expression of the luciferase reporter gene without addition of a PPARalpha ligand if fatty acid-depleted fetal calf serum (cs-FCS) is used in the assay. PPARalpha ligands bind and activate the PPARalpha fusion protein and thereby bring about expression of the luciferase reporter gene. The luciferase which is formed can be detected by means of chemiluminescence via an appropriate substrate.
Construction of the Cell Line
The PPARalpha reporter cell line was prepared in two steps. Firstly, the luciferase reporter element was constructed and stably transfected into HEK cells. For this purpose, five binding sites of the yeast transcription factor GAL4 (in each case 5′-CGGAGTACTGTCCTCCGAG-3′) were cloned in 5′-upstream of a 68 bp-long minimal MMTV promoter (Genbank Accession # V01175). The minimal MMTV promoter section contains a CCAAT box and a TATA element in order to enable efficient transcription by RNA polymerase II. The cloning and sequencing of the GAL4-MMTV construct took place in analogy to the description of Sambrook J. et. al. (Molecular cloning, Cold Spring Harbor Laboratory Press, 1989). Then the complete Photinus pyralis luciferase gene (Genbank Accession # M15077) was cloned in 3′-downstream of the GAL4-MMTV element. After sequencing, the luciferase reporter element consisting of five GAL4 binding sites, MMTV promoter and luciferase gene was subcloned into a plasmid which confers zeozin resistance in order to obtain the plasmid pdeltaM-GAL4-Luc-Zeo. This vector was transfected into HEK cells in accordance with the statements in Ausubel, F. M. et al. (Current protocols in molecular biology, Vol. 1-3, John Wiley & Sons, Inc., 1995).
In a second step, the PPARalpha fusion protein (GR-GAL4-humanPPARalpha-LBD) was introduced into the stable cell clone described. For this purpose, initially the cDNA coding for the N-terminal 76 amino acids of the glucocorticoid receptor (Genbank Accession # P04150) was linked to the cDNA section coding for amino acids 1-147 of the yeast transcription factor GAL4 (Genbank Accession # P04386). The cDNA of the ligand-binding domain of the human PPARalpha receptor (amino acids S167-Y468; Genbank Accession # S74349) was cloned in at the 3′ end of this GR-GAL4 construct. The fusion construct prepared in this way (GR-GAL4-humanPPARalpha-LBD) was subcloned into the plasmid pcDNA3 (from Invitrogen) in order to enable constitutive expression therein by the cytomegalovirus promoter. This plasmid was linearized with a restriction endonuclease and stably transfected into the previously described cell clone containing the luciferase reporter element. The finished PPARalpha reporter cell line which contains a luciferase reporter element and constitutively expresses the PPARalpha fusion protein (GR-GAL4-humanPPARalpha-LBD) was isolated by selection with zeozin (0.5 mg/ml) and G418 (0.5 mg/ml).
The activity of PPARalpha agonists is determined in a 3-day assay which is described below: […]

For the compound `CCc1oc(-c2ccc(C(C)C)cc2)nc1CO[C@H]1CCC[C@@H](COC(C)(Cc2ccccc2)C(=O)O)C1` (mixture of isomers) [Example 20, 2-{(1R,3S)-3-[5-Ethyl-2-(4-isopropylphenyl)oxazol-4-ylmethoxy]cyclohexylmethoxy}-2-methyl-3-phenylpropionic acid], the EC50 came out at 170 nM in experiment [1] and 0.54 nM in experiment [2].
Take `Cc1oc(-c2ccc3ccccc3c2)nc1CO[C@H]1CCC[C@@H](COC(C)(Cc2ccccc2)C(=O)O)C1` (mixture of isomers) [Example 21, 2-Methyl-2-{(1R,3S)-3-[5-methyl-2-(naphth-2-yl)oxazol-4-ylmethoxy]-cyclohexyimethoxy}-3-phenylpropionic acid]: the EC50 was found to be 600 nM in experiment [1] and 5.8 nM in experiment [2].
Taken in the same sequence, the figures for `Cc1oc(-c2ccc(F)cc2)nc1COC1CCCC(COC(C)(C)C(=O)O)C1` (centres unmarked) [**] were greater than 10000 nM and 4.5 nM.
Turning to `CCc1oc(-c2cccc(OC)c2)nc1CO[C@H]1CCC[C@@H](COC(C)(C)C(=O)O)C1` [Example 1, 2-{(1R,3S)-3-[5-ethyl-2-(3-methoxyphenyl)oxazol-4-ylmethoxy]cyclohexylmethoxy}-2-methylpropionic acid], the EC50 in experiment [1] came out at 930 nM; in experiment [2] it was 45 nM.
For `CCc1oc(-c2ccc(C)cc2)nc1CO[C@H]1CCC[C@@H](COC(C)(C)C(=O)O)C1` [Example 2, 2-[(1R,3S)-3-(5-Ethyl-2-p-tolyloxazol-4-ylmethoxy)cyclohexylmethoxy]-2-methylpropionic acid], in that order: 2900 nM and 3.5 nM.
In the case of `CCc1oc(-c2ccc(CC(C)C)cc2)nc1CO[C@H]1CCC[C@@H](COC(C)(C)C(=O)O)C1` [Example 3, 2-{(1R,3S)-3-[5-Ethyl-2-(4-isobutylphenyl)-oxazol-4-ylmethoxy]cyclohexylmethoxy}-2-methylpropionic acid], the EC50 in experiment [1] came out at 670 nM; in experiment [2] it was 19 nM.
`CCc1oc(-c2ccc3ccccc3c2)nc1CO[C@H]1CCC[C@@H](COC(C)(C)C(=O)O)C1` [Example 4, 2-{(1R,3S)-3-[5-Ethyl-2-(napth-2-yl)oxazol-4-ylmethoxy]cyclohexylmethoxy}-2-methylpropionic acid]: the EC50 in experiment [1] turned out to be 1100 nM; in experiment [2] it was 2 nM.
For the compound `CCc1oc(-c2cccc(C(F)(F)F)c2)nc1CO[C@H]1CCC[C@@H](COC(C)(C)C(=O)O)C1` [Example 5, 2-{(1R,3S)-3-[5-Ethyl-2-(3-trifluoromethylphenyl)oxazol-4-ylmethoxy]cyclo-hexylmethoxy}-2-methylpropionic acid], the values for the EC50 in experiment [1] and in experiment [2] were 1500 nM and 12 nM, respectively.
For the compound `Cc1oc(-c2ccc3ccccc3c2)nc1CO[C@H]1CCC[C@@H](COC(C)(C)C(=O)O)C1` [Example 7, 2-Methyl-2-{(1R,3S)-3-[5-methyl-2-(naphth-2-yl)oxazol-4-ylmethoxy]cyclo-hexylmethoxy}propionic acid], the values for the EC50 in experiment [1] and in experiment [2] were 2600 nM and 1.2 nM, respectively.
Taken in the same sequence, the figures for `COc1cccc(-c2nc(CO[C@H]3CCC[C@@H](COC(C)(C)C(=O)O)C3)c(C(C)C)o2)c1` [Example 9, 2-{(1R,3S)-3-[5-lsopropyl-2-(3-methoxypheny)oxazol-4-ylmethoxy]cyclo-hexylmethoxy}-2-methyl propionic acid] were 390 nM and 320 nM.
